Patent US20260199323A1, “LIGAND COMPOUNDS FOR E3 UBIQUITIN LIGASE, PROTEIN DEGRADERS DEVELOPED ON BASIS OF LIGAND COMPOUNDS, AND USES THEREOF” (GLUETACS THERAPEUTICS (SHANGHAI) CO., LTD., priority 2021, published 2026)
Like-named read-outs stand apart in the source and are kept apart here.

Assays:
[1] = test system: MM.1S; experiment: CCK-8 tumor cell proliferation, MM.1S; format: cell-based; settings: Table 7, designed based on BTK inhibitors; 72 h
In short: (§1)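 Proliferation was measured by CCK-8. Plated cells received compound 24 h later at ten 5-fold dilutions beginning at 10 μM.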

[2] = test system: NCI-H1975; experiment: CCK-8 tumor cell proliferation, NCI-H1975; format: cell-based, Human; settings: Table 7, designed based on BTK inhibitors; 96 h
In short: as §1

[3] = test system: JEKO-1; experiment: CCK-8 tumor cell proliferation, JEKO-1; design: species or system Human; settings: Table 7, designed based on BTK inhibitors; 96 h
Method: (§2) The tumor cells used herein were cultured in a cell culture medium listed in table 4 at 37° C. in an incubator with 5% CO2. Prior to experimentation, all cells used were correctly identified by STR profiling, and tested negative for mycoplasma through routine screenings.
(§3) IC50 values of the compounds of the present disclosure (including the compounds in Tables 1 and 3, and compounds of examples) were measured using the Meilun Cell Counting Kit-8 kit from Dalian Meilun Biotech Co., Ltd. Assay details are as follows: tumor cells were seeded in a 96-well plate at a density listed in Table 5. After 24 h, 100 μL of the inoculated cells were treated with 0.5 μL of the compounds of the present disclosure (including the compounds in Tables 1 and 3, and compounds of examples) at 10 different successively decreasing concentrations (starting at the highest concentration of 10 μM; 5-fold serial dilutions). After the cells were treated with the compounds of the present disclosure for a period of time, the cell viability detection reagent was added to the culture medium for cell viability assessment according to the instructions provided with the CCK-8 kit. […] The growth inhibition of the compounds of the present disclosure on cells was plotted by Prism Graphpad software, and the IC50 values of the compounds of the present disclosure were calculated therefrom.

[4] = test system: MDA-MB-231; experiment: CCK-8 tumor cell proliferation, MDA-MB-231; format: cell-based, Human; design: IC50 for inhibiting the proliferation of tumor cells, MDA-MB-231: scale not given here; settings: Table 7, designed based on BTK inhibitors; 96 h
In short: as §1

[5] = test system: THP-1; experiment: CCK-8 tumor cell proliferation, THP-1; format: cell-based, Human; settings: Table 7, designed based on BTK inhibitors; 72 h
Method: as §2, §3

[6] = test system: MM.1R; experiment: CCK-8 tumor cell proliferation, MM.1R; format: cell-based
In short: as §1

[7] = test system: Kasumi-1; experiment: CCK-8 tumor cell proliferation, Kasumi-1; format: cell-based, Human; settings: for IC50 for inhibiting the proliferation of tumor cells, Kasumi-1: Table 7, designed based on BTK inhibitors, 72 h; for IC50: Homo sapiens, Table 19, IRAK4 inhibitor based, Kasumi-1, read-out: IC50 inhibiting proliferation of tumor cells, Kasumi-1
In short: as §1

[8] = test system: Jurkat; experiment: CCK-8 tumor cell proliferation, Jurkat; format: cell-based, Human; settings: Homo sapiens
In short: as §1

[9] = test system: CAL-62; experiment: CCK-8 tumor cell proliferation, CAL-62; format: cell-based, Human; settings: Homo sapiens, CAL-62
In short: as §1

[10] = test system: 22RV1; experiment: CCK-8 tumor cell proliferation, 22RV1; design: species or system Human; settings: Table 7, designed based on BTK inhibitors; 96 h
Method: as §2, §3

[11] = test system: Vcap; experiment: CCK-8 tumor cell proliferation, Vcap; format: cell-based, Human; settings: Table 7, designed based on BTK inhibitors; 96 h
In short: as §1

[12] = test system: MV-4-11; experiment: CCK-8 tumor cell proliferation, MV-4-11; format: cell-based, Human; settings: for IC50 for inhibiting the proliferation of tumor cells, MV-4-11: Table 7, designed based on BTK inhibitors, 72 h; for IC50: Homo sapiens, MV4-11, Table 19, IRAK4 inhibitor based, MV-4-11, read-out: IC50 inhibiting proliferation of tumor cells, MV-4-11
In short: as §1

[13] = test system: Mino; experiment: CCK-8 tumor cell proliferation, Mino; format: cell-based, Human; settings: for IC50 for inhibiting the proliferation of tumor cells, Mino: Table 7, designed based on BTK inhibitors, 72 h; for IC50: Mino, read-out: IC50 inhibiting proliferation of tumor cells, Mino
In short: as §1

[14] = test system: PC-3; experiment: CCK-8 tumor cell proliferation, PC-3; format: cell-based, Human; settings: 96 h
Method: as §2, §3

[15] = test system: CCRF-CEM; experiment: CCK-8 tumor cell proliferation, CCRF-CEM; format: cell-based, Human; design: IC50 for inhibiting the proliferation of tumor cells, CCRF-CEM: scale not given here; settings: for IC50 for inhibiting the proliferation of tumor cells, CCRF-CEM: Table 7, designed based on BTK inhibitors, 96 h; for IC50: Homo sapiens, Table 19, IRAK4 inhibitor based, CCRF-CEM, read-out: IC50 inhibiting proliferation of tumor cells, CCRF-CEM
In short: as §1

[16] = test system: NCI-H1666; experiment: CCK-8 tumor cell proliferation, NCI-H1666; format: cell-based, Human; settings: read-out: IC50 inhibiting proliferation of tumor cells, NCI-H1666
Method: as §2, §3

[17] = test system: SW620; experiment: CCK-8 tumor cell proliferation, SW620; format: cell-based, Human; settings: SW620, read-out: IC50 inhibiting proliferation of tumor cells, SW620
In short: as §1

[18] = test system: SU-DHL-4; experiment: CCK-8 tumor cell proliferation, SU-DHL-4; format: cell-based, Human; settings: read-out: IC50 inhibiting proliferation of tumor cells, SU-DHL-4
Method: as §2, §3

[19] = Homo sapiens, Table 19, IRAK4 inhibitor based
[20] = Table 19, IRAK4 inhibitor based, read-out: IC50 inhibiting proliferation of tumor cells, MM.1R
[21] = Homo sapiens, SW-620, Table 19, IRAK4 inhibitor based
[22] = Table 19, IRAK4 inhibitor based, read-out: IC50 inhibiting proliferation of tumor cells, Jurkat
[23] = Table 19, IRAK4 inhibitor based, read-out: IC50 inhibiting proliferation of tumor cells, CAL-62
[24] = Homo sapiens, Table 19, given as number

IC50 for inhibiting the proliferation of tumor cells, MM.1S [1]	IC50 for inhibiting the proliferation of tumor cells, NCI-H1975 [2]	IC50 for inhibiting the proliferation of tumor cells, JEKO-1 [3]	IC50 for inhibiting the proliferation of tumor cells, MDA-MB-231 [4]	IC50 for inhibiting the proliferation of tumor cells, THP-1 [5]	IC50 for inhibiting the proliferation of tumor cells, Kasumi-1 [7]	IC50 for inhibiting the proliferation of tumor cells, 22RV1 [10]	IC50 for inhibiting the proliferation of tumor cells, Vcap [11]	IC50 [16, 19] [nM]	IC50 [15] [nM]	IC50 [6, 20] [nM]	IC50 [17, 21] [nM]	IC50 [7] [nM]	IC50 [18, 19] [nM]	IC50 [8, 22] [nM]	IC50 [9, 23] [nM]	IC50 [12] [nM]	IC50 [13, 19] [nM]	Structure (SMILES)	other results
A+	A+	A+	A+	A+	A+	A+	A+											Nc1ncnc2c1c(-c1ccc(Oc3ccccc3)cc1)nn2C1CCN(Cc2ccc3c(c2)CN(C2CCC(=O)NC2=O)C3=O)CC1 (stereo not shown) [GT-02742, 3-(5-((4-(4-amino-3-(4-phenoxyphenyl)-1H-pyrazolo[3,4-d]pyrimidin-1-yl)piperidin-1-yl)methyl)-1-oxoisoindolin-2-yl)piperidine-2,6-dione]	IC50 ([6]; Table 23, compared to Comparative Example compounds, read-out: Inhibitory activity (IC50, nM) against tumor cell proliferation, MM.1R): < 50 nM; IC50 ([8]; Table 23, compared to Comparative Example compounds, read-out: Inhibitory activity (IC50, nM) against tumor cell proliferation, Jurkat): < 50 nM; IC50 ([9]; Table 23, compared to Comparative Example compounds, read-out: Inhibitory activity (IC50, nM) against tumor cell proliferation, CAL-62): < 50 nM; IC50 for inhibiting the proliferation of tumor cells, MV-4-11 [12]: A+; IC50 for inhibiting the proliferation of tumor cells, Mino [13]: A+
																		N#Cc1ccc(O[C@H]2CC[C@H](NC(=O)c3ccc(N4CCC(N5CCN(Cc6ccc7c(c6)CN(C6CCC(=O)NC6=O)C7=O)CC5)CC4)nn3)CC2)cc1Cl (stereo partly shown) [GT-02989, N-((1r,4r)-4-(3-chloro-4-cyanophenoxy)cyclohexyl)-6-(4-(4-((2-(2,6-dioxopiperidin-3-yl)-1-oxoisoindolin-5-yl)methyl)piperazin-1-yl)piperidin-1-yl)pyridazine-3-carboxamide]	IC50 for inhibiting the proliferation of tumor cells, PC-3 ([14]; Table 10, designed based on AR inhibitors): A+
A+	A+	A+	A+	A+	A+	A+	A+											Nc1ncnc2c1c(-c1ccc(Oc3ccccc3)cc1)nn2[C@@H]1CCN(Cc2ccc3c(c2)CN(C2CCC(=O)NC2=O)C3=O)C[C@@H]1F (stereo partly drawn) [GT-03297, 3-(5-(((3S,4R)-4-(4-amino-3-(4-phenoxyphenyl)-1H-pyrazolo[3,4-d]pyrimidin-1-yl)-3-fluoropiperidin-1-yl)methyl)-1-oxoisoindolin-2-yl)piperidine-2,6-dione]	IC50 for inhibiting the proliferation of tumor cells, CCRF-CEM [15]: A+
A+	A+	A+	A+	A+	A+	A+	A+											Nc1ncnc2c1c(-c1ccc(Oc3ccccc3)cc1)nn2[C@H]1CCN(Cc2ccc3c(c2)CN(C2CCC(=O)NC2=O)C3=O)C[C@H]1F (stereo partly drawn) [GT-03331, 3-(5-(((3R,4S)-4-(4-amino-3-(4-phenoxyphenyl)-1H-pyrazolo[3,4-d]pyrimidin-1-yl)-3-fluoropiperidin-1-yl)methyl)-1-oxoisoindolin-2-yl)piperidine-2,6-dione]	IC50 for inhibiting the proliferation of tumor cells, CCRF-CEM [15]: A+; IC50 for inhibiting the proliferation of tumor cells, MV-4-11 [12]: A+; IC50 for inhibiting the proliferation of tumor cells, Mino [13]: A+
								500 to 1000	< 50	< 50	< 50	< 50	500 to 1000	< 50	< 50	< 50	< 50	O=C1CCC(N2Cc3cc(CN4CCC(n5cc(NC(=O)c6cnn7ccc(N8CCOCC8)nc67)c(C(F)F)n5)CC4)ccc3C2=O)C(=O)N1 (stereo not shown) [GT-03809, N-(3-(difluoromethyl)-1-(1-((2-(2,6-dioxopiperidin-3-yl)-1-oxoisoindolin-5-yl)methyl)piperidin-4-yl)-1H-pyrazol-4-yl)-5-morpholinopyrazolo[1,5-a]pyrimidine-3-carboxamide]	
								100 to 500	< 50	< 50	< 50	< 50	100 to 500	< 50	< 50	< 50	< 50	O=C1CCC(N2Cc3c(ccc(CN4CCC(n5cc(NC(=O)c6cnn7ccc(N8CCOCC8)nc67)c(C(F)F)n5)CC4)c3F)C2=O)C(=O)N1 (stereo not shown) [GT-03810, N-(3-(difluoromethyl)-1-(1-((2-(2,6-dioxopiperidin-3-yl)-4-fluoro-1-oxoisoindolin-5-yl)methyl)piperidin-4-yl)-1H-pyrazol-4-yl)-5-morpholinopyrazolo[1,5-a]pyrimidine-3-carboxamide]	
								50 to 100	< 50	< 50	< 50	< 50	100 to 500	< 50	< 50	< 50	< 50	O=C1CCC(N2Cc3cc(CN4CCC(n5cc(NC(=O)c6cnn7ccc(N8CCOCC8)nc67)c(C(F)F)n5)CC4)c(F)cc3C2=O)C(=O)N1 (stereo not shown) [GT-03811, N-(3-(difluoromethyl)-1-(1-((2-(2,6-dioxopiperidin-3-yl)-6-fluoro-1-oxoisoindolin-5-yl)methyl)piperidin-4-yl)-1H-pyrazol-4-yl)-5-morpholinopyrazolo[1,5-a]pyrimidine-3-carboxamide]	
																		Cc1sc2c(c1C)C(c1ccc(Cl)cc1)=N[C@@H](CC(=O)OC(C)(C)C)c1nnc(C)n1-2 [JQ-1, reference compound]	IC50 ([14]; Table 16, designed based on BET inhibitors, read-out: IC50 for inhibiting the proliferation of tumor cells, PC-3): > 10000 nM
																		CC[C@@H]1[C@H](F)C(=O)N[C@@H]1COc1nccc2cc(C(N)=O)c(OC)cc12 [PF06650833, reference compound]	IC50 ([16]; Table 19, given as number): > 10000 nM; IC50 ([17]; Table 19, given as number): > 10000 nM; IC50 ([18]; Table 19, given as number): > 10000 nM; IC50 ([13]; Table 19, IRAK4 inhibitor based): 5000 to 10000 nM
																		Cc1cc(-c2nc(C(=O)Nc3cc4oc(N5CCOCC5)nc4nc3N3CC[C@@H](O)C3)co2)ccn1 [emavusertib, reference compound]	IC50 [16, 24]: > 10000 nM; IC50 ([17]; Homo sapiens, SW-620, Table 19, given as number): > 10000 nM; IC50 [18, 24]: > 10000 nM; IC50 [13, 24]: > 10000 nM
